From patent publication US20250074901A1, “NOVEL HETEROARYL COMPOUNDS” (ICAGEN, LLC, priority 2021, published 2025)

Biological target: T1, Kv7.2 (Homo sapiens, UniProt O43526)
T1 construct: expressed in transfected cells
Assay: Activation of Kv7.2 (in vitro assay, concentration response curve)
Type: cell-based
Conditions: for Emax: Kv7.2 activation max %; for EC50: activation of Kv7.2
Summary of the method: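 EC50 is the half-maximal effective concentration, relative to the Emax observed for each compound in this in vitro assay. It was derived from concentration–response curves of the agonistic effect measured over a series of concentrations.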

Row | SMILES | Emax | EC50
1 | C[C@]1(O)CCC[C@@H]1NC(=O)NCc1ccnc(OC(F)F)c1 [Example 184, 1-[[2-(difluoromethoxy)pyridin-4-yl]methyl]-3-[(1S,2S)-2-hydroxy-2-methylcyclopentyl]urea] | 55% | 1810 nM
2 | O=C(NC(CO)c1ccnc(OCC(F)(F)F)c1)N[C@H]1C[C@H](C(F)(F)F)C1 (stereo partly drawn) [Example 185, 1-[2-hydroxy-1-[2-(2,2,2-trifluoroethoxy)pyridin-4-yl]ethyl]-3-[(1r,3r)-3-(trifluoromethyl)cyclobutyl]urea] | 84% | 380 nM
3 | O=C(NCc1ccnc(OC(F)F)c1)Nc1ccc(F)c(F)c1 [Example 186, 1-[[2-(difluoromethoxy)pyridin-4-yl]methyl]-3-(3,4-difluorophenyl)urea] | 62% | 550 nM
4 | CC1(C)CC(NC(=O)NCc2ccnc(OC(F)F)c2)C1 [Example 188, 1-[[2-(difluoromethoxy)pyridin-4-yl]methyl]-3-(3,3-dimethylcyclobutyl)urea] | 82% | 50 nM
5 | O=C(NCc1ccnc(OC(F)F)c1)N[C@H]1C[C@@H]2[C@H](C1)C2(F)F [Example 189, 1-[[2-(difluoromethoxy)pyridin-4-yl]methyl]-3-[(1R,3r,5S)-6,6-difluoro-3-bicyclo[3.1.0]hexanyl]urea] | 74% | 130 nM
6 | O=C(NCc1ccnc(OC(F)F)c1)N[C@@H]1C[C@H]2CCC[C@H]2C1 [Example 190, 1-[[2-(difluoromethoxy)pyridin-4-yl]methyl]-3-[(2s,3aR,6aS)-1,2,3,3a,4,5,6,6a-octahydropentalen-2-yl]urea] | 85% | 30 nM
7 | O=C(NCc1ccnc(OC(F)F)c1)NCC1(C(F)F)CCC1 [Example 191, 1-[[2-(difluoromethoxy)pyridin-4-yl]methyl]-3-[[1-(difluoromethyl)cyclobutyl]methyl]urea] | 68% | 450 nM
8 | O=C(NCc1ccnc(OC(F)F)c1)NC1COc2ccccc2C1 (stereo not drawn) [Example 192, 1-[[2-(difluoromethoxy)pyridin-4-yl]methyl]-3-(3,4-dihydro-2H-chromen-3-yl)urea] | 51% | 240 nM
9 | C[C@]1(NC(=O)NCc2ccnc(OC(F)F)c2)C[C@@H](C(F)(F)F)C1 [Example 194, 1-[[2-(difluoromethoxy)pyridin-4-yl]methyl]-3-[(1r,3r)-1-methyl-3-(trifluoromethyl)cyclobutyl]urea] | 40% | 1540 nM
10 | O=C(NCc1ccnc(OC(F)F)c1)N[C@H]1C[C@@H]2CC(F)(F)C[C@@H]2C1 [Example 195, 1-[[2-(difluoromethoxy)pyridin-4-yl]methyl]-3-[(2r,3aR,6aS)-5,5-difluoro-2,3,3a,4,6,6a-hexahydro-1H-pentalen-2-yl]urea] | 51% | 290 nM
11 | O=C(NCc1ccnc(OC(F)F)c1)N[C@H]1C[C@@H](C(F)(F)F)C1 [Example 198, 1-[[2-(difluoromethoxy)pyridin-4-yl]methyl]-3-[(1s,3s)-3-(trifluoromethyl)cyclobutyl]urea] | 65% | 400 nM
12 | C[C@@H](F)COc1cc(CNC(=O)N[C@H]2C[C@H](C(F)(F)F)C2)ccn1 [Example 199, 1-[[2-[(2R)-2-fluoropropoxy]pyridin-4-yl]methyl]-3-[(1r,3r)-3-(trifluoromethyl)cyclobutyl]urea] | 52% | 290 nM
13 | CC(F)(F)c1cc(CNC(=O)NC23CC(F)(C2)C3)ccn1 [Example 200, 1-[[2-(1,1-difluoroethyl)pyridin-4-yl]methyl]-3-(3-fluoro-1-bicyclo[1.1.1]pentanyl)urea] | 54% | 4930 nM
14 | CC(F)(F)COc1cc(CNC(=O)NC23CC(F)(C2)C3)ccn1 [Example 201, 1-[[2-(2,2-difluoropropoxy)pyridin-4-yl]methyl]-3-(3-fluoro-1-bicyclo[1.1.1]pentanyl)urea] | 60% | 210 nM
15 | C[C@H](F)COc1cc(CNC(=O)N[C@H]2C[C@H](C(F)(F)F)C2)ccn1 [Example 202, 1-[[2-[(2S)-2-fluoropropoxy]pyridin-4-yl]methyl]-3-[(1r,3r)-3-(trifluoromethyl)cyclobutyl]urea] | 57% | 260 nM
16 | O=C(NCc1ccnc(OCC(F)(F)F)n1)Nc1cccc(Cl)c1 [Example 203, 1-(3-chlorophenyl)-3-[[2-(2,2,2-trifluoroethoxy)pyrimidin-4-yl]methyl]urea] | 42% | 210 nM
17 | O=C(NCc1ccnc(OCC(F)(F)F)n1)N[C@H]1C[C@H](C(F)(F)F)C1 [Example 204, 1-[[2-(2,2,2-trifluoroethoxy)pyrimidin-4-yl]methyl]-3-[(1r,3r)-3-(trifluoromethyl)cyclobutyl]urea] | 45% | 340 nM
18 | C[Si](C)(C)CCNC(=O)NCc1ccnc(OC(F)F)c1 [Example 212, 1-[[2-(difluoromethoxy)pyridin-4-yl]methyl]-3-(2-trimethylsilylethyl) urea] | 82% | 400 nM

Further lines, results first:

Row | Emax | EC50 | SMILES
19 | 64% | 240 nM | Cc1cc(NC(=O)NC(CO)c2ccnc(OCC(F)(F)F)c2)ccc1F (stereo not drawn) [Example 205, 1-(4-fluoro-3-methylphenyl)-3-[2-hydroxy-1-[2-(2,2,2-trifluoroethoxy)pyridin-4-yl]ethyl]urea]
20 | 58% | 470 nM | O=C(NCc1ccnc(OCF)c1)NC12CCC(F)(CC1)CC2 [Example 208, 1-(4-fluoro-1-bicyclo[2.2.2]octanyl)-3-[[2-(fluoromethoxy)pyridin-4-yl]methyl]urea]
21 | 71% | 490 nM | O=C(NCc1ccnc(OC2CC(F)(F)C2)c1)N[C@H]1C[C@H](C(F)(F)F)C1 [Example 209, 1-[[2-(3,3-difluorocyclobutyl)oxypyridin-4-yl]methyl]-3-[(1r,3r)-3-(trifluoromethyl)cyclobutyl]urea]
22 | 48% | 160 nM | O=C(NCc1ccnc(OCC(F)(F)F)c1)NCC1(F)CCC1 [Example 210, 1-[(1-fluorocyclobutyl)methyl]-3-[[2-(2,2,2-trifluoroethoxy)pyridin-4-yl]methyl]urea]
23 | 61% | 320 nM | O=C(NCc1ccnc(OC(F)F)c1)N[C@H]1CC[C@@H](C(F)(F)F)CC1 [Example 211, 1-[[2-(difluoromethoxy)pyridin-4-yl]methyl]-3-[(1s,4s)-4-(trifluoromethyl)cyclohexyl]urea]
24 | 47% | 340 nM | O=C(NCc1ccnc(OCC(F)CF)c1)NC12CCC(F)(CC1)CC2 (stereo not drawn) [Example 213, 1-[[2-(2,3-difluoropropoxy)pyridin-4-yl]methyl]-3-(4-fluoro-1-bicyclo[2.2.2]octanyl)urea]
25 | 54% | 500 nM | O=C(NCc1ccnc(OCC(F)CF)c1)N[C@H]1C[C@H](C(F)(F)F)C1 (stereo partly drawn) [Example 214, 1-[[2-(2,3-difluoropropoxy)pyridin-4-yl]methyl]-3-[(1r,3r)-3-(trifluoromethyl)cyclobutyl]urea]
26 | 40% | 6830 nM | O=C(NCc1cnnc(OCC(F)(F)F)c1)N[C@H]1C[C@H](C(F)(F)F)C1 [Example 215]
27 | 50% | 1470 nM | O=C(NCc1ccnc(OCC(F)CF)c1)NC12CC(F)(C1)C2 (stereo not drawn) [Example 216, 1-[[2-(2,3-difluoropropoxy)pyridin-4-yl]methyl]-3-(3-fluoro-1-bicyclo[1.1.1]pentanyl)urea]
